Results published in publication PMC5516944 (Structure (London, England : 1993), 2017).

T1: hATL1 (Homo sapiens, UniProt Q8WXF7)
T1 sequence (Q8WXF7 1-446): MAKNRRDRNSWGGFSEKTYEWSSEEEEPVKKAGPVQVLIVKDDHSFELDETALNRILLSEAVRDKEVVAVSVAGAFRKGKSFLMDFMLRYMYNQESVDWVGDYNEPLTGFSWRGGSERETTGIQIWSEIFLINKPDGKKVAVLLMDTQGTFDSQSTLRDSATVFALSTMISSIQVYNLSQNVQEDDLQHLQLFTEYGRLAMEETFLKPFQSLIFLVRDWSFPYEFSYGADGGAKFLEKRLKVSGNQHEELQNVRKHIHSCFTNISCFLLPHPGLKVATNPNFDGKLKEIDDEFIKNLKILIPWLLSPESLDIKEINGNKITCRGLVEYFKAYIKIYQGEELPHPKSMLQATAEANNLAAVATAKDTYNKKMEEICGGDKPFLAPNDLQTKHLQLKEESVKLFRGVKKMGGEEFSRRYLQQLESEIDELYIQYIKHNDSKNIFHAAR

T2: hATL3 (Homo sapiens, UniProt Q6DD88)
T2 sequence (Q6DD88 1-442): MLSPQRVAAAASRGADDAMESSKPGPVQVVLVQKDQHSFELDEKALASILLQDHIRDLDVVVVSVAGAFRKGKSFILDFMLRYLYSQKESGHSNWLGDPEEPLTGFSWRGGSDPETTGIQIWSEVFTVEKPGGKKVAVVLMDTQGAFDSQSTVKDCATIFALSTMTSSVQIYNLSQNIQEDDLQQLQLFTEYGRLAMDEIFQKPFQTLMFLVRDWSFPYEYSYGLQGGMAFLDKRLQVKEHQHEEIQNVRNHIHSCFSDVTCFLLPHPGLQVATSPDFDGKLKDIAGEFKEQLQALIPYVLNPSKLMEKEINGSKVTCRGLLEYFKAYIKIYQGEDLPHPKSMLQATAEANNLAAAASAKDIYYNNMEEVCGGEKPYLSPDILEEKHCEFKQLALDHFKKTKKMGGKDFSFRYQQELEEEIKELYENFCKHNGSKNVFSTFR

B1: human atlastin 1 (hATL1) catalytic core fragment, G and middle domains (1–446) (domain or fragment, UniProt Q8WXF7 1-446, looked up)
chain: T1 sequence (Q8WXF7 1-446)
B2: human atlastin 3 (hATL3) catalytic core fragment, G and middle domains (1–442) (domain or fragment, UniProt Q6DD88 1-442, looked up)
chain: T2 sequence (Q6DD88 1-442)

Experiments:
hATL1 = target: T1, hATL1; assay: SEC-MALS, nucleotide-induced dimerisation; assay type: binding; conditions: 1 mM nucleotide; 40 μM protein; pH 7.5; 4 mM MgCl2
hATL3 = target: T2, hATL3; assay: SEC-MALS, nucleotide-induced dimerisation; assay type: binding; conditions: 1 mM nucleotide; 40 μM protein; pH 7.5; 4 mM MgCl2
SEC-MALS = target: the molecule itself; assay: SEC-MALS

Row | Molecule | SEC-MALS, nucleotide-induced dimerisation (hATL1) | SEC-MALS, nucleotide-induced dimerisation (hATL3) | stoichiometry N (SEC-MALS)
1 | Nc1nc2c(ncn2[C@@H]2O[C@H](COP(=O)(O)OP(=O)(O)NP(=O)(O)O)[C@@H](O)[C@H]2O)c(=O)[nH]1 [GppNHp] | dimeric ATLs are found when bound to GppNHp and GDP•AlFx | dimeric ATLs are found when bound to GppNHp and GDP•AlFx | –
2 | B1 | – | – | 2
3 | B2 | – | – | 2
